Measured values published in patent US10173968B2, “Bishydrazone-based antifungal agents” (University of Kentucky Research Foundation, priority 2016, dated 2019).
Like-named read-outs stand apart in the source and are kept apart here.

Tests used:
[1] = system: C. albicans ATCC 1237; experiment: Antifungal MIC, CLSI M27-A3 microbroth dilution; assay type: cell-based, Candida albicans; settings: ITC, and VOR
Description: (§1) In vitro MIC testing was performed according to the CLSI M27-A3 standard microbroth dilution methodology for the susceptibility testing of yeasts with minor modifications.

[2] = system: C. albicans ATCC 2876; experiment: Antifungal MIC, CLSI M27-A3 microbroth dilution; assay type: cell-based, Candida albicans; settings: Candida albicans, ATCC2876, C. albicans ATCC 2876, susceptible to FLC, ITC, and VOR, read-out: MIC
Description: as §1

[3] = system: C. albicans ATCC 64124; experiment: Antifungal MIC, CLSI M27-A3 microbroth dilution; assay type: cell-based, Candida albicans; settings: Candida albicans, ATCC64124, C. albicans ATCC 64124, resistant to FLC, ITC, and VOR, read-out: MIC
Description: as §1

[4] = system: C. albicans ATCC 90819; experiment: Antifungal MIC, CLSI M27-A3 microbroth dilution; assay type: cell-based, Candida albicans; settings: Candida albicans, ATCC90819, C. albicans ATCC 90819, resistant to FLC, ITC, and VOR, read-out: MIC
Description: as §1

[5] = system: C. albicans ATCC 1003; experiment: Antifungal MIC, CLSI M27-A3 microbroth dilution; assay type: cell-based, Candida albicans; settings: Candida albicans, ATCC1003, read-out: MIC
Description: as §1

[6] = system: C. albicans ATCC 10231; experiment: Antifungal MIC, CLSI M27-A3 microbroth dilution; assay type: cell-based, Candida albicans; settings: Candida albicans, ATCC10231, C. albicans ATCC 10231, resistant to FLC, ITC, and VOR, read-out: MIC
Description: as §1

[7] = system: C. albicans ATCC 2310; experiment: Antifungal MIC, CLSI M27-A3 microbroth dilution; assay type: cell-based, Candida albicans; settings: Candida albicans, ATCC2310, C. albicans ATCC 2310, susceptible to FLC, ITC, and VOR, read-out: MIC
Description: as §1

[8] = system: M. smegmatis MC2-155; experiment: Antibacterial MIC, double-dilution method; assay type: cell-based; settings: mycobacterial
Description: (§2) MIC values were determined against a variety of Gram-positive (strains A-D) and Gram-negative (E-J) bacterial and mycobacterial (K) strains using the double-dilution method, as previously published. Preliminary screening was performed using 500 μM of each compound.

[9] = system: VRE; experiment: Antibacterial MIC, double-dilution method; assay type: cell-based; settings: Enterococcus
Description: as §2

[10] = system: E. coli MC1061; experiment: Antibacterial MIC, double-dilution method; assay type: cell-based; settings: Escherichia coli, strain G, Gram-negative, read-out: MIC
Description: as §2

[11] = system: S. enterica ATCC 14028; experiment: Antibacterial MIC, double-dilution method; assay type: cell-based; settings: Salmonella enterica, ATCC14028
Description: as §2

[12] = system: B. subtilis 168; experiment: Antibacterial MIC, double-dilution method; assay type: cell-based; settings: Bacillus subtilis, strain A, Gram-positive
Description: as §2

[13] = system: P. aeruginosa ATCC 27853; experiment: Antibacterial MIC, double-dilution method; assay type: cell-based; settings: Pseudomonas aeruginosa, ATCC27853, strain I, Gram-negative, read-out: MIC
Description: as §2

[14] = system: MRSA; experiment: Antibacterial MIC, double-dilution method; assay type: cell-based; settings: Staphylococcus aureus
Description: as §2

[15] = system: K. pneumoniae ATCC 27736; experiment: Antibacterial MIC, double-dilution method; assay type: cell-based; settings: Klebsiella pneumoniae, ATCC27736, strain H, Gram-negative, read-out: MIC
Description: as §2

[16] = system: A. baumannii ATCC 19606; experiment: Antibacterial MIC, double-dilution method; assay type: cell-based; settings: Acinetobacter baumannii, ATCC19606
Description: as §2

[17] = system: L. monocytogenes ATCC 19115; experiment: Antibacterial MIC, double-dilution method; assay type: cell-based; settings: Listeria monocytogenes, ATCC19115
Description: as §2

[18] = system: E. cloacae ATCC 13047; experiment: Antibacterial MIC, double-dilution method; assay type: cell-based; settings: Enterobacter cloacae, ATCC13047
Description: as §2

[19] = system: C. albicans strains (panel of seven); experiment: Antifungal MIC, summary over the panel; assay type: cell-based, Candida albicans; settings: Candida albicans; all, most or majority of the fungal strains; read-out: MIC, span over C. albicans strains
Description: In vitro MIC testing was performed according to the CLSI M27-A3 standard microbroth dilution methodology for the susceptibility testing of yeasts with minor modifications. […] MIC values were read visually for all tested compounds, and the endpoint was determined as the minimum concentration of compound that yielded complete inhibition relative to growth control.

[20] = Candida albicans, ATCC1237, C. albicans ATCC 1237, resistant to FLC, converted from μg/mL, read-out: MIC
[21] = Candida albicans, ATCC1237, C. albicans ATCC 1237, resistant to FLC, read-out: MIC
[22] = C. albicans ATCC 1003, converted from μg/mL
[23] = Mycolicibacterium smegmatis, MC2155, strain K, converted from μM, read-out: MIC
[24] = Mycolicibacterium smegmatis, MC2155, strain K, range 0.5 to 500 μM, read-out: MIC
[25] = strain D, Gram-positive, range 0.5 to 500 μM, read-out: MIC
[26] = strain J, Gram-negative, range 0.5 to 500 μM, read-out: MIC
[27] = strain C, Gram-positive, range 0.5 to 500 μM, read-out: MIC
[28] = strain E, Gram-negative, range 0.5 to 500 μM, read-out: MIC
[29] = strain B, Gram-positive, range 0.5 to 500 μM, read-out: MIC
[30] = strain F, Gram-negative, converted from μM, read-out: MIC
[31] = strain F, Gram-negative, range 0.5 to 500 μM, read-out: MIC
[32] = strain D, Gram-positive, converted from μM, read-out: MIC
[33] = strain J, Gram-negative, converted from μM, read-out: MIC
[34] = strain E, Gram-negative, converted from μM, read-out: MIC
[35] = strain B, Gram-positive, converted from μM, read-out: MIC

| Compound | MIC [1, 20] [µM] | MIC [1, 21] [µg/mL] | MIC ([2]; converted from μg/mL) [µM] | MIC [2] [µg/mL] | MIC ([3]; converted from μg/mL) [µM] | MIC [3] [µg/mL] | MIC ([4]; converted from μg/mL) [µM] | MIC [4] [µg/mL] | MIC [5, 22] [µM] | MIC [5] [µg/mL] | MIC ([6]; converted from μg/mL) [µM] | MIC [6] [µg/mL] | MIC ([7]; converted from μg/mL) [µM] | MIC [7] [µg/mL] | MIC [8, 23] [µg/mL] | MIC [9, 25] [µM] | MIC ([10]; converted from μM) [µg/mL] | MIC ([10]; range 0.5 to 500 μM) [µM] | MIC [11, 26] [µM] | MIC ([12]; converted from μM) [µg/mL] | other results |
| --- | --- | --- | --- | --- | --- | --- | --- | --- | --- | --- | --- | --- | --- | --- | --- | --- | --- | --- | --- | --- | --- |
| C/C(=N\NC(=N)N)c1ccc(-c2ccc(/C(C)=N/NC(=N)N)cc2)cc1.Cl.Cl [Compound 4A, (2E,2′E)-2,2′-([1,1′-Biphenyl]-4,4′-diylbis(ethan-1-yl-1-ylidene))bis(hydrazine-1-carboximidamide) dihydrochloride] | > 73.9 | 31.3 | 4.7 | 2 | 4.7 | 2 | 9.2 | 3.9 | 18.4 | 7.8 | 4.7 to 9.2 | 2 to 3.9 | 9.2 | 3.9 | > 212 | > 500 | 26.5 | 62.5 | > 500 | > 212 | MIC ([1]; C. albicans ATCC 1237, resistant to FLC, dihydrochloride): >31.3 µg/mL; MIC [8, 24]: > 500 µM; MIC [9]: > 212 µg/mL; MIC [11]: > 212 µg/mL; MIC ([12]; range 0.5 to 500 μM): > 500 µM; MIC ([13]; converted from μM): 0.8 µg/mL; MIC ([13]; range 0.5 to 500 μM): 2 µM; MIC [14]: > 212 µg/mL; MIC [14, 27]: > 500 µM; MIC ([15]; converted from μM): 6.6 µg/mL; MIC ([15]; range 0.5 to 500 μM): 15.6 µM; MIC [16]: > 212 µg/mL; MIC [16, 28]: > 500 µM; MIC [17]: > 212 µg/mL; MIC [17, 29]: > 500 µM; MIC [18, 30]: 52.9 µg/mL; MIC [18, 31]: 125 µM; MIC [19]: 2 to 3.9 µg/mL |
| C/C(=N\NC(=N)N)c1ccc(/C(C)=N/NC(=N)N)cc1.Cl.Cl [Compound 4G, (2E,2′E)-2,2′-(1,4-Phenylenebis(ethan-1-yl-1-ylidene))bis(hydrazine-1-carboximidamide) dihydrochloride] | > 90.1 | > 31.3 | > 90.1 | > 31.3 | 90.1 | 31.3 | > 90.1 | > 31.3 | > 90.1 | > 31.3 | > 90.1 | > 31.3 | > 90.1 | > 31.3 | > 173 | 125 | > 173 | > 500 | 250 to 500 | 86.8 | MIC [8, 24]: > 500 µM; MIC [9, 32]: 43.4 µg/mL; MIC [11, 33]: 86.8 to 173 µg/mL; MIC ([12]; range 0.5 to 500 μM): 250 µM; MIC ([13]; converted from μM): 86.8 µg/mL; MIC ([13]; range 0.5 to 500 μM): 250 µM; MIC [14]: > 173 µg/mL; MIC [14, 27]: > 500 µM; MIC ([15]; converted from μM): 173 µg/mL; MIC ([15]; range 0.5 to 500 μM): 500 µM; MIC [16, 34]: 173 µg/mL; MIC [16, 28]: 500 µM; MIC [17, 35]: 86.8 µg/mL; MIC [17, 29]: 250 µM; MIC [18]: > 173 µg/mL; MIC [18, 31]: > 500 µM |
| C/C(=N\NC(=N)N)c1cccc(/C(C)=N/NC(=N)N)c1.Cl.Cl [Compound 4H, (2E,2′E)-2,2′-(1,3-Phenylenebis(ethan-1-yl-1-ylidene))bis(hydrazine-1-carboximidamide) dihydrochloride] | 90.1 | 31.3 | 22.5 | 7.8 | > 90.1 | > 31.3 | > 90.1 | > 31.3 | > 90.1 | > 31.3 | > 90.1 | > 31.3 | 90.1 | 31.3 | 5.4 | 125 | > 173 | > 500 | 62.5 to 250 | 86.8 | MIC ([8]; Mycolicibacterium smegmatis, MC2155, strain K, range 0.5 to 500 μM): 15.6 to 31.3 µM; MIC ([8]; strain K, range 0.5 to 500 μM, dihydrochloride): (15.6) μM; MIC [9, 32]: 43.4 µg/mL; MIC [11, 33]: 21.7 to 86.8 µg/mL; MIC ([12]; range 0.5 to 500 μM): 250 µM; MIC ([13]; converted from μM): 173 µg/mL; MIC ([13]; range 0.5 to 500 μM): 500 µM; MIC ([14]; strain C, Gram-positive, converted from μM, read-out: MIC): > 173 µg/mL; MIC [14, 27]: > 500 µM; MIC ([15]; converted from μM): > 173 µg/mL; MIC ([15]; range 0.5 to 500 μM): > 500 µM; MIC [16, 34]: > 173 µg/mL; MIC [16, 28]: > 500 µM; MIC [17, 35]: 86.8 µg/mL; MIC [17, 29]: 250 µM; MIC [18, 30]: > 173 µg/mL; MIC [18, 31]: > 500 µM |
